Columns and labels:
[1] = mn = molality of the nth substance listed, in mol/kg; conditions: 101 kPa, Liquid; for speed of sound: Sing-around technique in a fixed-path interferometer; for mass density: Vibrating tube method
[2] = refractive index (Na D-line) (dimensionless); mn = molality of the nth substance listed, in mol/kg; conditions: 101 kPa, Liquid, Standard Abbe refractometry

O=P([O-])([O-])O.[K+].[K+] [dipotassium hydrogen phosphate] + O
Conditions | mass density, 298.15 K [kg/m3] | mass density, 303.15 K [kg/m3] | mass density, 308.15 K [kg/m3] | refractive index, 298.15 K | refractive index, 303.15 K | refractive index, 308.15 K | speed of sound, 298.15 K [m/s] | speed of sound, 303.15 K [m/s] | speed of sound, 308.15 K [m/s]
[1], m1 = 0.1 | 1016.33 | 1015.38 | 1014.18 | – | – | – | 1512.8 | 1525.1 | 1535.6
[1], m1 = 0.3 | 1041.48 | 1040.03 | 1038.39 | – | – | – | 1542.9 | 1553.8 | 1563.4
[1], m1 = 0.5 | 1072.35 | 1071.14 | 1069.06 | – | – | – | 1574.6 | 1584.6 | 1593.3
[1], m1 = 0.7 | 1103.77 | 1103.01 | 1103.01 | – | – | – | 1607.3 | 1616.8 | 1626
[1], m1 = 0.9 | 1135.65 | 1136.16 | 1134.44 | – | – | – | 1641.6 | 1651.1 | 1657.8
[2], m1 = 0.1 | – | – | – | 1.3354 | 1.3346 | 1.334 | – | – | –
[2], m1 = 0.3 | – | – | – | 1.3404 | 1.3397 | 1.3392 | – | – | –
[2], m1 = 0.5 | – | – | – | 1.3456 | 1.3453 | 1.3445 | – | – | –
[2], m1 = 0.7 | – | – | – | 1.3506 | 1.35 | 1.3495 | – | – | –
[2], m1 = 0.9 | – | – | – | 1.3557 | 1.3554 | 1.3547 | – | – | –

O=P([O-])(O)O.[Li+] [lithium dihydrogen phosphate] + O
Conditions | mass density, 298.15 K [kg/m3] | mass density, 303.15 K [kg/m3] | mass density, 308.15 K [kg/m3] | refractive index, 298.15 K | refractive index, 303.15 K | refractive index, 308.15 K | speed of sound, 298.15 K [m/s] | speed of sound, 303.15 K [m/s] | speed of sound, 308.15 K [m/s]
[1], m1 = 0.1 | 1004.55 | 1003.21 | 1001.59 | – | – | – | 1506.5 | 1518.5 | 1528.8
[1], m1 = 0.3 | 1018.97 | 1017.71 | 1016.05 | – | – | – | 1525.5 | 1536.8 | 1546.5
[1], m1 = 0.5 | 1033.8 | 1032.57 | 1031.29 | – | – | – | 1544.1 | 1555 | 1564.5
[1], m1 = 0.7 | 1048.96 | 1048.1 | 1046.58 | – | – | – | 1569.2 | 1573.7 | 1582.6
[1], m1 = 0.9 | 1064.91 | 1063.79 | 1055.48 | – | – | – | 1582.6 | 1593 | 1593.1
[2], m1 = 0.1 | – | – | – | 1.3342 | 1.3332 | 1.3327 | – | – | –
[2], m1 = 0.3 | – | – | – | 1.3365 | 1.3363 | 1.3355 | – | – | –
[2], m1 = 0.5 | – | – | – | 1.3394 | 1.339 | 1.3387 | – | – | –
[2], m1 = 0.7 | – | – | – | 1.3421 | 1.3418 | 1.3414 | – | – | –
[2], m1 = 0.9 | – | – | – | 1.3452 | 1.3448 | 1.3444 | – | – | –

O=P([O-])([O-])[O-].[Na+].[Na+].[Na+] [trisodium phosphate] + O
Conditions | mass density, 298.15 K [kg/m3] | mass density, 303.15 K [kg/m3] | mass density, 308.15 K [kg/m3] | refractive index, 298.15 K | refractive index, 303.15 K | refractive index, 308.15 K | speed of sound, 298.15 K [m/s] | speed of sound, 303.15 K [m/s] | speed of sound, 308.15 K [m/s]
[1], m1 = 0.1 | 1015.18 | 1013.87 | 1012.26 | – | – | – | 1519.7 | 1531.5 | 1541.8
[1], m1 = 0.3 | 1052.41 | 1051.09 | 1049.48 | – | – | – | 1563.1 | 1573.9 | 1583.5
[1], m1 = 0.5 | 1091.06 | 1090.82 | 1089.21 | – | – | – | 1608.9 | 1619.9 | 1628.3
[1], m1 = 0.7 | 1130.08 | 1129.51 | 1131.08 | – | – | – | 1658.1 | 1667.3 | 1677.7
[1], m1 = 0.9 | 1173.67 | 1169.99 | 1167.45 | – | – | – | 1716.9 | 1722.6 | 1727.6
[2], m1 = 0.1 | – | – | – | 1.3365 | 1.3358 | 1.3353 | – | – | –
[2], m1 = 0.3 | – | – | – | 1.3439 | 1.3431 | 1.3425 | – | – | –
[2], m1 = 0.5 | – | – | – | 1.3515 | 1.3506 | 1.35 | – | – | –
[2], m1 = 0.7 | – | – | – | 1.3588 | 1.3581 | 1.3574 | – | – | –
[2], m1 = 0.9 | – | – | – | 1.3664 | 1.3671 | 1.3653 | – | – | –

O=P(O)(O)O [phosphoric acid] + O
Conditions | mass density, 298.15 K [kg/m3] | mass density, 303.15 K [kg/m3] | mass density, 308.15 K [kg/m3] | refractive index, 298.15 K | refractive index, 303.15 K | refractive index, 308.15 K | speed of sound, 298.15 K [m/s] | speed of sound, 303.15 K [m/s] | speed of sound, 308.15 K [m/s]
[1], m1 = 0.1 | 1002.05 | 1000.62 | 998.962 | – | – | – | 1497.1 | 1509.2 | 1519.7
[1], m1 = 0.3 | 1011.37 | 1009.93 | 1008.27 | – | – | – | 1498.3 | 1510.2 | 1520.4
[1], m1 = 0.5 | 1021.09 | 1019.94 | 1018.07 | – | – | – | 1500 | 1511.6 | 1521.6
[1], m1 = 0.7 | 1030.49 | 1029.49 | 1028.12 | – | – | – | 1502 | 1513.2 | 1523
[1], m1 = 0.9 | 1040.62 | 1039.05 | 1037.8 | – | – | – | 1504.2 | 1515.1 | 1524.6
[2], m1 = 0.1 | – | – | – | 1.3334 | 1.3329 | 1.3323 | – | – | –
[2], m1 = 0.3 | – | – | – | 1.335 | 1.3345 | 1.3339 | – | – | –
[2], m1 = 0.5 | – | – | – | 1.3366 | 1.336 | 1.3356 | – | – | –
[2], m1 = 0.7 | – | – | – | 1.3381 | 1.3376 | 1.3371 | – | – | –
[2], m1 = 0.9 | – | – | – | 1.3397 | 1.3393 | 1.3388 | – | – | –

— the NIST ThermoML archive (doi:10.1016/j.jct.2013.01.012)
